Each structure is given as a SMILES string.

The molecule `COc1cc(COc2nn(-c3ccccc3)cc2/C=C/C(=O)O)ccc1OCc1nc(-c2ccccc2)oc1C` [Example 281, (E)-3-(3-{[3-methoxy-4-(5-methyl-2-phenyl-1,3-oxazol-4-ylmethoxy)benzyl]oxy}-1-phenyl-1H-pyrazol-4-yl)-2-propenoic acid] displayed a melting point of 188 to 189 °C.
`COc1cc(COc2nn(-c3ccccc3)cc2CC#N)ccc1OCc1nc(-c2ccccc2)oc1C` [Example 283, (3-{[3-methoxy-4-(5-methyl-2-phenyl-1,3-oxazol-4-ylmethoxy)benzyl]oxy}-1-phenyl-1H-pyrazol-4-yl)acetonitrile] came in with a melting point of 137 to 138 °C.
Next, `COc1cc(C(=O)Nc2nn(-c3ccccc3)cc2C=O)ccc1OCc1nc(-c2ccco2)oc1C` [Example 290, N-(4-formyl-1-phenyl-1H-pyrazol-3-yl)-4-{[2-(2-furyl)-5-methyl-1,3-oxazol-4-yl]methoxy}-3-methoxybenzamide]: 212 to 213 °C.
Next, `COC(=O)c1cc(OCc2ccc(OCc3nc(-c4ccccc4)oc3C)c(OC)c2)nn1-c1ccccc1` [Example 291, methyl 3-{[3-methoxy-4-(5-methyl-2-phenyl-1,3-oxazol-4-ylmethoxy)benzyl]oxy}-1-phenyl-1H-pyrazole-5-carboxylate]: 143 to 144 °C; `COc1cc(COc2cc(C(=O)O)n(-c3ccccc3)n2)ccc1OCc1nc(-c2ccccc2)oc1C` [Example 292, 3-{[3-methoxy-4-(5-methyl-2-phenyl-1,3-oxazol-4-ylmethoxy)benzyl]oxy}-1-phenyl-1H-pyrazole-5-carboxylic acid]: 192 to 193 °C.
The same measure for `COc1cc(COc2cc(CO)n(-c3ccccc3)n2)ccc1OCc1nc(-c2ccccc2)oc1C` [Example 293, (3-{[3-methoxy-4-(5-methyl-2-phenyl-1,3-oxazol-4-ylmethoxy)benzyl]oxy}-1-phenyl-1H-pyrazol-5-yl)methanol]: 146 to 147 °C.
For the molecule `COc1cc(COc2cc(C=O)n(-c3ccccc3)n2)ccc1OCc1nc(-c2ccccc2)oc1C` [Example 294, 3-{[3-methoxy-4-(5-methyl-2-phenyl-1,3-oxazol-4-ylmethoxy)benzyl]oxy}-1-phenyl-1H-pyrazole-5-carbaldehyde], the melting point fell in the range of 119 to 120 °C.
The same measure for `CCOC(=O)/C=C/c1cn(-c2ccc(C(F)(F)F)cc2)nc1OCc1ccc(OCc2nc(-c3ccccc3)oc2C)c(OC)c1` [Example 295, ethyl (2E)-3-{3-({3-methoxy-4-[(5-methyl-2-phenyl-1,3-oxazol-4-yl)methoxy]benzyl}oxy)-1-[4-(trifluoromethyl)phenyl]-1H-pyrazol-4-yl}-2-propenoate]: 205 to 206 °C; for `COc1cc(COc2nn(-c3ccc(C(F)(F)F)cc3)cc2/C=C/CO)ccc1OCc1nc(-c2ccccc2)oc1C` [Example 296, (2E)-3-{3-({3-methoxy-4-[(5-methyl-2-phenyl-1,3-oxazol-4-yl)methoxy]benzyl}oxy)-1-[4-(trifluoromethyl)phenyl]-1H-pyrazol-4-yl}-2-propen-1-ol]: 118 to 119 °C; for `COc1cc(COc2nn(-c3ccc(C(F)(F)F)cc3)cc2/C=C/C(=O)OCOC(=O)C(C)(C)C)ccc1OCc1nc(-c2ccccc2)oc1C` [Example 297, [(2,2-dimethylpropanoyl)oxy]methyl (2E)-3-{3-({3-methoxy-4-[(5-methyl-2-phenyl-1,3-oxazol-4-yl)methoxy]benzyl}oxy)-1-[4-(trifluoromethyl)phenyl]-1H-pyrazol-4-yl}-2-propenoate]: 131 to 132 °C.
The same measure for `COc1cc(COc2cc(C#N)n(-c3ccccc3)n2)ccc1OCc1nc(-c2ccccc2)oc1C` [Example 298, 3-{[3-methoxy-4-(5-methyl-2-phenyl-1,3-oxazol-4-ylmethoxy)benzyl]oxy}-1-phenyl-1H-pyrazole-5-carbonitrile]: 120 to 121 °C.
The same measure for `CCOC(=O)/C=C/c1cc(OCc2ccc(OCc3nc(-c4ccccc4)oc3C)c(OC)c2)nn1-c1ccccc1` [Example 299, ethyl (E)-3-(3-{[3-methoxy-4-(5-methyl-2-phenyl-1,3-oxazol-4-ylmethoxy)benzyl]oxy}-1-phenyl-1H-pyrazol5-yl)-2-propenoate]: 121 to 122 °C; for `COc1cc(COc2cc(/C=C/C(=O)O)n(-c3ccccc3)n2)ccc1OCc1nc(-c2ccccc2)oc1C` [Example 300, (E)-3-(3-{[3-methoxy-4-(5-methyl-2-phenyl-1,3-oxazol-4-ylmethoxy)benzyl]oxy}-1-phenyl-1H-pyrazol5-yl)-2-propenoic acid]: 194 to 195 °C.
Regarding `COc1cc(CC(=O)Nc2nn(-c3ccccc3)cc2C=O)ccc1OCc1nc(-c2ccco2)oc1C` [Example 303, N-(4-formyl-1-phenyl-1H-pyrazol-3-yl)-2-(4-{[2-(2-furyl)-5-methyl-1,3-oxazol-4-yl]methoxy}-3-methoxyphenyl)acetamide], the melting point fell in the range of 190 to 191 °C.
The same measure for `Cc1oc(-c2ccccc2)nc1COc1ccc(OCc2oc(-c3ccccc3)nc2C=O)cc1` [Example 304, 5-({4-[(5-methyl-2-phenyl-1,3-oxazol-4-yl)methoxy]phenoxy}methyl)-2-phenyl-1,3-oxazole-4-carbaldehyde]: 127 to 128 °C; for `COc1cc(COc2nc(-c3ccccc3)ncc2C(=O)O)ccc1OCc1nc(-c2ccco2)oc1C` [Example 305, 4-[(4-{[2-(2-furyl)-5-methyl-1,3-oxazol-4-yl]methoxy}-3-methoxybenzyl)oxy]-2-phenylpyrimidine-5-carboxylic acid]: 163 to 164 °C; for `COC(=O)c1cccc(-c2nc(COc3ccc(COc4nn(-c5ccccc5)cc4/C=C/c4nc(N5CCOCC5)sc4C)cc3OC)c(C)o2)c1` [Example 309, methyl 3-[4-({2-methoxy-4-[({4-[(E)-2-(5-methyl-2-morpholin-4-yl-1,3-thiazol-4-yl)ethenyl]-1-phenyl-1H-pyrazol-3-yl}oxy)methyl]phenoxy}methyl)-5-methyl-1,3-oxazol-2-yl]benzoate]: 183 to 184 °C.
For `COc1cc(COc2nn(-c3ccccc3)cc2/C=C/c2nc(N3CCOCC3)sc2C)ccc1OCc1nc(-c2cccc(C(=O)O)c2)oc1C` [Example 310, 3-[4-({2-methoxy-4-[({4-[(E)-2-(5-methyl-2-morpholin-4-yl-1,3-thiazol-4-yl)ethenyl]-1-phenyl-1H-pyrazol-3-yl}oxy)methyl]phenoxy)methyl)-5-methyl-1,3-oxazol-2-yl]benzoic acid], the melting point was 215 to 217 °C (dec.).
Next, `CCOC(=O)/C=C/c1nc(COc2ccc(COc3nn(-c4ccccc4)cc3C=O)cc2OC)c(C)o1` [Example 313, ethyl (2E)-3-{4-[(4-{[(4-formyl-1-phenyl-1H-pyrazol-3-yl)oxy]methyl}-2-methoxyphenoxy)methyl]-5-methyl-1,3-oxazol-2-yl}-2-propenoate]: 150 to 151 °C; `COC(=O)c1cc(-c2nc(COc3ccc(COc4nn(-c5ccccc5)cc4C=O)cc3OC)c(C)o2)ccc1C` [Example 319, methyl 5-{4-[(4-{[(4-formyl-1-phenyl-1H-pyrazol-3-yl)oxy]methyl}-2-methoxyphenoxy)methyl]-5-methyl-1,3-oxazol-2-yl}-2-methylbenzoate]: 195 to 196 °C.
On to `CCOC(=O)/C=C/c1nc(COc2ccc(COc3nn(-c4ccccc4)cc3/C=C/c3csc(CC)n3)cc2OC)c(C)o1` [Example 322 (E form), ethyl (2E)-3-[4-({4-[({4-[(E)-2-(2-ethyl-1,3-thiazol-4-yl)ethenyl]-1-phenyl-1H-pyrazol-3-yl}oxy)methyl]-2-methoxyphenoxy}methyl)-5-methyl-1,3-oxazol-2-yl]-2-propenoate], for which the melting point fell in the range of 95 to 96 °C.
The same measure for `CCOC(=O)/C=C/c1nc(COc2ccc(COc3nn(-c4ccccc4)cc3/C=C\c3csc(CC)n3)cc2OC)c(C)o1` [Example 322 (Z form), ethyl (2E)-3-[4-({4-[({4-[(Z)-2-(2-ethyl-1,3-thiazol-4-yl)ethenyl]-1-phenyl-1H-pyrazol-3-yl}oxy)methyl]-2-methoxyphenoxy}methyl)-5-methyl-1,3-oxazol-2-yl]-2-propenoate]: 119 to 120 °C.
The same measure for `CCc1nc(/C=C/c2cn(-c3ccccc3)nc2OCc2ccc(OCc3nc(/C=C/C(=O)O)oc3C)c(OC)c2)cs1` [Example 323, (2E)-3-[4-({4-[({4-[(E)-2-(2-ethyl-1,3-thiazol-4-yl)ethenyl]-1-phenyl-1H-pyrazol-3-yl}oxy)methyl]-2-methoxyphenoxy}methyl)-5-methyl-1,3-oxazol-2-yl]-2-propenoic acid]: 125 to 126 °C; for `CCOC(=O)C1CCN(c2nc(COc3ccc(COc4nn(-c5ccccc5)cc4C=O)cc3OC)c(C)s2)CC1` [Example 324, ethyl 1-(4-[(4-{[(4-formyl-1-phenyl-1H-pyrazol-3-yl)oxy]methyl}-2-methoxyphenoxy)methyl]-5-methyl-1,3-thiazol-2-yl}piperidine-4-carboxylate]: 126 to 127 °C; for `CCOC(=O)c1ccc(-c2nc(COc3ccc(COc4nn(-c5ccccc5)cc4C=O)cc3OC)c(C)o2)s1` [Example 327, ethyl 5-{4-[(4-{[(4-formyl-1-phenyl-1H-pyrazol-3-yl)oxy]methyl}-2-methoxyphenoxy)methyl]-5-methyl-1,3-oxazol-2-yl}thiophene-2-carboxylate]: 156 to 157 °C.
The same measure for `CCOC(=O)c1ccc(-c2nc(COc3ccc(COc4nn(-c5ccccc5)cc4/C=C/c4csc(CC)n4)cc3OC)c(C)o2)s1` [Example 330 (E form), ethyl 5-[4-({4-[({4-[(E)-2-(2-ethyl-1,3-thiazol-4-yl)ethenyl]-1-phenyl-1H-pyrazol-3-yl}oxy)methyl]-2-methoxyphenoxy}methyl)-5-methyl-1,3-oxazol-2-yl]thiophene-2-carboxylate]: 145 to 146 °C.
For the molecule `CCOC(=O)c1ccc(-c2nc(COc3ccc(COc4nn(-c5ccccc5)cc4/C=C\c4csc(CC)n4)cc3OC)c(C)o2)s1` [Example 330 (Z form), ethyl 5-[4-({4-[({4-[(Z)-2-(2-ethyl-1,3-thiazol-4-yl)ethenyl]-1-phenyl-1H-pyrazol-3-yl}oxy)methyl]-2-methoxyphenoxy}methyl)-5-methyl-1,3-oxazol-2-yl]thiophene-2-carboxylate], the melting point was in the range of 118 to 119 °C.

(Values after patent US7368578B2, “Five-membered heterocyclic compounds” (Takeda Pharmaceutical Company Limited, priority 2002, dated 2008).)
